Measurements published in patent publication US9796711B2, “Substituted pyrazolo[3,4-b]pyridin-6-carboxylic acids and method of use” (AbbVie S.àr.l., priority 2015, dated 2017).
pEC50: −log10 of the molar value.

Experiments:
[1] = biological target: T1, ΔF508-CFTR (Homo sapiens, UniProt P13569, DEL508-508); assay: CFTR cell surface levels using HRP-tagged ΔF508-CFTR expressing CFBE cells, in the presence of a co-corrector; type: cell-based; conditions: HRP-tagged ΔF508-CFTR expressing CFBE cells, in the presence of 3 μM co-corrector; for pEC50: read-out: EC50
T1 construct: host or cells: CFBE41o-, doxycycline-inducible
Procedure, shortened: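 Cells were seeded with 0.5 μg/mL doxycycline and held 68 h at 37 °C. Test compounds plus 3 μM co-corrector (final 0.1% DMSO) were then added for 20 h at 33 °C. Washed cells received HRP substrate, and luminescence was normalized between DMSO and 3 μM co-corrector controls.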

[2] = biological target: T1, ΔF508-CFTR; assay: CFTR cell surface levels using HRP-tagged ΔF508-CFTR expressing CFBE cells, intrinsic corrector capacity; type: cell-based; conditions: HRP-tagged ΔF508-CFTR CFBE41o- cells, compounds alone (intrinsic corrector capacity), 20 hours at 33° C.; for % Activation: positive control 3 μM corrector; for pEC50: read-out: EC50
Procedure, shortened: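 Here the cells express ΔF508-CFTR with horseradish peroxidase inserted in extracellular loop 4, so only rescued channel at the surface gives luminescent signal. Compounds act on their own, 20 h at the reduced temperature of 33 °C; values are percent activity relative to DMSO and a 3 μM corrector.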

T1 sequence (P13569 with tags, fused parts or gaps DEL508-508): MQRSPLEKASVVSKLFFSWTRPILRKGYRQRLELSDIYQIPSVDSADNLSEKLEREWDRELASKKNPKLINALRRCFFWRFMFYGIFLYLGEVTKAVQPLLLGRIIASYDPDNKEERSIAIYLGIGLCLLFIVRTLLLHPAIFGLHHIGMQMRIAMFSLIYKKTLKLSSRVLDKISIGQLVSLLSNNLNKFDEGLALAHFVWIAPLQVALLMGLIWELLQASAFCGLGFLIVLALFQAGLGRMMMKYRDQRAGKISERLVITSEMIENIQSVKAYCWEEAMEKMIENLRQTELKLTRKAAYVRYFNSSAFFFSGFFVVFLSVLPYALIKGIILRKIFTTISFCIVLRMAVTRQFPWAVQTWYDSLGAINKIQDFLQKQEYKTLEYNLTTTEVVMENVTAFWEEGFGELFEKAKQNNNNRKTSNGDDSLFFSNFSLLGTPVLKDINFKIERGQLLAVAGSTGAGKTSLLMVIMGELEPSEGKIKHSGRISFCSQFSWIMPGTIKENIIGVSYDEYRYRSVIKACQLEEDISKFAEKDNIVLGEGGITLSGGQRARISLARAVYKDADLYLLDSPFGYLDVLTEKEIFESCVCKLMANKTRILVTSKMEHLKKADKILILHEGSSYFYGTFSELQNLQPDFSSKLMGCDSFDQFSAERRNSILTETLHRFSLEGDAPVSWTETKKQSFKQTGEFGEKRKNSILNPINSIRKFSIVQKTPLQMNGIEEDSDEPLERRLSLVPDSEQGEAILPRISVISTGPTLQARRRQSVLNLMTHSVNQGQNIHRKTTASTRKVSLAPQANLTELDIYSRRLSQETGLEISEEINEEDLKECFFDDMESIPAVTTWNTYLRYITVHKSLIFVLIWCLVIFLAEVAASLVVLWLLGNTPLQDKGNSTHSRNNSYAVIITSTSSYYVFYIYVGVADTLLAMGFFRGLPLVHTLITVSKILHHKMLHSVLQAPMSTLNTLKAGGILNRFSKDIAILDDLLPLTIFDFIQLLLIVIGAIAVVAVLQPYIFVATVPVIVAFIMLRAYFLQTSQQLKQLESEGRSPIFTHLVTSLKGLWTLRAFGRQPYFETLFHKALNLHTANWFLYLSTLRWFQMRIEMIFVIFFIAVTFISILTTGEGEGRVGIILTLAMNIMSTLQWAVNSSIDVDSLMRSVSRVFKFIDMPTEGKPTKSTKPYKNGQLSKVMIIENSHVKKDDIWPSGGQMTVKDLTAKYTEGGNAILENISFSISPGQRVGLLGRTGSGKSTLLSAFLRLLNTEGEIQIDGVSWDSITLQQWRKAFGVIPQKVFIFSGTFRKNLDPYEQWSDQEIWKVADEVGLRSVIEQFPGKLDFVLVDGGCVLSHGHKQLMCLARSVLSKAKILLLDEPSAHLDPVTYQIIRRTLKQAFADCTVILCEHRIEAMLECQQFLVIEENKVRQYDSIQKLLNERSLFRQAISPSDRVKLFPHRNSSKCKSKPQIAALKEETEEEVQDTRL

| Compound | % Activation [1] [%] | pEC50 [1] | % Activation [2] [%] | pEC50 [2] |
| --- | --- | --- | --- | --- |
| Cc1nn(-c2ccccc2)c2nc(C(=O)O)cc(N3CCCN(S(C)(=O)=O)CC3)c12 [compound 320, 4-[4-(methanesulfonyl)-1,4-diazepan-1-yl]-3-methyl-1-phenyl-1H-pyrazolo[3,4-b]pyridine-6-carboxylic acid] | 166.3 | 5.48 | 19.37 | < 5.00 |
| COCCCN1CCN(c2cc(C(=O)O)nc3c2c(C)nn3-c2ccccc2)CC1 [compound 321, 4-[4-(3-methoxypropyl)piperazin-1-yl]-3-methyl-1-phenyl-1H-pyrazolo[3,4-b]pyridine-6-carboxylic acid] | 196.85 | 5.60 | 39.85 | 5.60 |
| Cc1nn(-c2ccccc2)c2nc(C(=O)O)cc(N3CCN(C(=O)N4CCOCC4)CC3)c12 [compound 322, 3-methyl-4-[4-(morpholine-4-carbonyl)piperazin-1-yl]-1-phenyl-1H-pyrazolo[3,4-b]pyridine-6-carboxylic acid] | 154.55 | 5.48 | 12.25 | < 5.00 |
| Cc1nn(-c2ccccc2)c2nc(C(=O)O)cc(N3CCN(CC(=O)N(C)C)CC3)c12 [compound 323, 4-{4-[2-(dimethylamino)-2-oxoethyl]piperazin-1-yl}-3-methyl-1-phenyl-1H-pyrazolo[3,4-b]pyridine-6-carboxylic acid] | 128.4 | < 5.00 | 8.143 | < 5.00 |
| Cc1nn(-c2ccccc2)c2nc(C(=O)O)cc(N3CCC(N4CCOCC4)CC3)c12 [compound 324, 3-methyl-4-[4-(morpholin-4-yl)piperidin-1-yl]-1-phenyl-1H-pyrazolo[3,4-b]pyridine-6-carboxylic acid] | 279.1 | 5.60 | 93.32 | 5.60 |
| CC(C)c1nn(-c2ccc(F)cc2F)c2nc(C(=O)O)cc(-c3cnc(N4CCC(C#N)CC4)nc3)c12 [compound 325, 4-[2-(4-cyanopiperidin-1-yl)pyrimidin-5-yl]-1-(2,4-difluorophenyl)-3-(propan-2-yl)-1H-pyrazolo[3,4-b]pyridine-6-carboxylic acid] | 389.75 | 6.11 | 177.1 | 5.92 |
| CC(C)c1nn(-c2ccc(F)cc2F)c2nc(C(=O)O)cc(-c3ccc(N4CCC(C#N)CC4)nc3)c12 [compound 326, 4-[6-(4-cyanopiperidin-1-yl)pyridin-3-yl]-1-(2,4-difluorophenyl)-3-(propan-2-yl)-1H-pyrazolo[3,4-b]pyridine-6-carboxylic acid] | 360.83 | 6.24 | 180.53 | 6.01 |
| CC(C)c1nn(-c2ccc(F)cc2F)c2nc(C(=O)O)cc(-c3ccc(N4CCC(C#N)CC4)cc3)c12 [compound 327, 4-[4-(4-cyanopiperidin-1-yl)phenyl]-1-(2,4-difluorophenyl)-3-(propan-2-yl)-1H-pyrazolo[3,4-b]pyridine-6-carboxylic acid] | 335.63 | 6.62 | 176 | 6.43 |
| CC(C)c1nn(-c2cccc(N(C)C)c2)c2nc(C(=O)O)cc(N3CCCCC3)c12 [compound 328, 1-[3-(dimethylamino)phenyl]-4-(piperidin-1-yl)-3-(propan-2-yl)-1H-pyrazolo[3,4-b]pyridine-6-carboxylic acid] | 422.25 | 6.33 | 196.9 | 6.17 |
| CC(C)c1nn(-c2cccc(N(C)C)c2)c2nc(C(=O)O)cc(N3CCC(C#N)CC3)c12 [compound 329, 4-(4-cyanopiperidin-1-yl)-1-[3-(dimethylamino)phenyl]-3-(propan-2-yl)-1H-pyrazolo[3,4-b]pyridine-6-carboxylic acid] | 454.57 | 6.51 | 239.4 | 6.25 |
| COC1CCN(c2cc(C(=O)O)nc3c2c(C(C)C)nn3-c2cccc(N(C)C)c2)CC1 [compound 330, 1-[3-(dimethylamino)phenyl]-4-(4-methoxypiperidin-1-yl)-3-(propan-2-yl)-1H-pyrazolo[3,4-b]pyridine-6-carboxylic acid] | 509.93 | 6.71 | 326.43 | 6.39 |
| CC(C)c1nn(-c2cccc(N(C)C)c2)c2nc(C(=O)O)cc(N3CCC(CO)CC3)c12 [compound 331, 1-[3-(dimethylamino)phenyl]-4-[4-(hydroxymethyl)piperidin-1-yl]-3-(propan-2-yl)-1H-pyrazolo[3,4-b]pyridine-6-carboxylic acid] | 513.57 | 6.41 | 311.73 | 5.98 |
| Cc1nn(-c2ccccc2)c2nc(C(=O)O)cc(O[C@H]3C[C@@H](N4CCS(=O)(=O)CC4)C3)c12 [compound 333, 4-{[cis-3-(1,1-dioxo-1λ^6,4-thiazinan-4-yl)cyclobutyl]oxy}-3-methyl-1-phenyl-1H-pyrazolo[3,4-b]pyridine-6-carboxylic acid] | 150.85 | 5.39 | 27.26 | 5.38 |
| Cc1nn(-c2ccccc2)c2nc(C(=O)O)cc(OCCN3CCS(=O)(=O)CC3)c12 [compound 334, 4-[2-(1,1-dioxo-lλ^6,4-thiazinan-4-yl)ethoxy]-3-methyl-1-phenyl-1H-pyrazolo[3,4-b]pyridine-6-carboxylic acid] | 226.6 | 5.72 | 36.645 | 5.38 |
| Cc1nn(-c2ccccc2)c2nc(C(=O)O)cc(OC[C@@H](F)C3CCOCC3)c12 [compound 335, 4-[(2S)-2-fluoro-2-(oxan-4-yl)ethoxy]-3-methyl-I-phenyl-1H-pyrazolo[3,4-b]pyridine-6-carboxylic acid] | 259.25 | 5.86 | 100.33 | 5.79 |
| Cc1nn(-c2ccccc2)c2nc(C(=O)O)cc(OC[C@H](F)C3CCOCC3)c12 [compound 336, 4-[(2R)-2-fluoro-2-(oxan-4-yl)ethoxy]-3-methyl-1-phenyl-1H-pyrazolo[3,4-b]pyridine-6-carboxylic acid] | 297.8 | 5.88 | 118.2 | 5.86 |
| Cc1nn(-c2ccccc2)c2nc(C(=O)O)cc(O[C@H]3CCN(C)C3)c12 [compound 337, 3-methyl-4-{[(3S)-1-methylpyrrolidin-3-yl]oxy}-1-phenyl-1H-pyrazolo[3,4-b]pyridine-6-carboxylic acid] | 139.85 | 5.38 | 15.48 | 5.12 |
| Cc1nn(-c2ccccc2)c2nc(C(=O)O)cc(O[C@@H]3CCN(C)C3)c12 [compound 338, 3-methyl-4-{[(3R)-1-methylpyrrolidin-3-yl]oxy}-1-phenyl-1H-pyrazolo[3,4-b]pyridine-6-carboxylic acid] | 135.7 | 5.12 | 12.64 | 5.12 |
| Cc1nn(-c2ccccc2)c2nc(C(=O)O)cc(OC3CCN(C)CC3)c12 [compound 339, 3-methyl-4-[(1-methylpiperidin-4-yl)oxy]-1-phenyl-1H-pyrazolo[3,4-b]pyridine-6-carboxylic acid] | 126.85 | 5.12 | 15.162 | 5.12 |
